Assay results: PubChem BioAssay AID2060604 (Molecular Pharmacology Branch, DTP, NCI, 2025)
pIC50: −log10 of the molar value.

Tested on: 379773-124-R-J2-PDC complex spheroids, viability % test/control
Assay: Anticancer human tumor 379773-124-R-J2-PDC patient-derived endometrial carcinoma cell line growth inhibition [CLK]
Details: for pIC50: curve of first compound; for viability, T/C: stronger effect = lower value
Outline: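 Patient-derived tumor cells grown as complex spheroids with HUVEC endothelial cells and mesenchymal stem cells, treated with drug combinations. Concentrations descend in half-log steps from near clinical Cmax, or from 10 microM if Cmax unknown.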

[1] = second compound 0.0316 µM, first compound 0.00316 µM
[2] = second compound 0.0316 µM, first compound 0.01 µM
[3] = second compound 0.0316 µM, first compound 0.0316 µM
[4] = second compound 0.0316 µM, first compound 0.1 µM
[5] = second compound 0.0316 µM, first compound 0.316 µM
[6] = second compound 0.0316 µM, first compound 1 µM
[7] = second compound 0.1 µM, first compound 0.00316 µM
[8] = second compound 0.1 µM, first compound 0.01 µM
[9] = second compound 0.1 µM, first compound 0.0316 µM
[10] = second compound 0.1 µM, first compound 0.1 µM
[11] = second compound 0.1 µM, first compound 0.316 µM
[12] = second compound 0.1 µM, first compound 1 µM
[13] = second compound 0.316 µM, first compound 0.00316 µM
[14] = second compound 0.316 µM, first compound 0.01 µM
[15] = second compound 0.316 µM, first compound 0.0316 µM
[16] = second compound 0.316 µM, first compound 0.1 µM
[17] = second compound 0.316 µM, first compound 0.316 µM
[18] = second compound 0.316 µM, first compound 1 µM
[19] = second compound 1 µM, first compound 0.00316 µM
[20] = second compound 1 µM, first compound 0.01 µM
[21] = second compound 1 µM, first compound 0.0316 µM
[22] = second compound 1 µM, first compound 0.1 µM
[23] = second compound 1 µM, first compound 0.316 µM
[24] = second compound 1 µM, first compound 1 µM
[25] = second compound 3.16 µM, first compound 0.00316 µM
[26] = second compound 3.16 µM, first compound 0.01 µM
[27] = second compound 3.16 µM, first compound 0.0316 µM
[28] = second compound 3.16 µM, first compound 0.1 µM
[29] = second compound 3.16 µM, first compound 0.316 µM
[30] = second compound 3.16 µM, first compound 1 µM
[31] = second compound 10 µM, first compound 0.00316 µM
[32] = second compound 10 µM, first compound 0.01 µM
[33] = second compound 10 µM, first compound 0.0316 µM
[34] = second compound 10 µM, first compound 0.1 µM
[35] = second compound 10 µM, first compound 0.316 µM
[36] = second compound 10 µM, first compound 1 µM
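Note: compound exposure lasted seven days before the viability readout.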
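Throughout, for viability, T/C: 100% = DMSO vehicle control wells.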

CCN1CCN(Cc2ccc(Nc3ncc(F)c(-c4cc(F)c5nc(C)n(C(C)C)c5c4)n3)nc2)CC1 + CNC(=O)c1ccc(Nc2nc(OC3CCCC3)c3c(-c4ccc5nc(C)oc5c4)c[nH]c3n2)c(OC)c1
pIC50 (second compound 0.0316 µM): < 6.00
pIC50 (second compound 0.1 µM): > 8.50
pIC50 (second compound 0.316 µM): > 8.50
pIC50 (second compound 1 µM): > 8.50
pIC50 (second compound 3.16 µM): > 8.50
pIC50 (second compound 10 µM): > 8.50
viability, T/C [1]: 74.5%
viability, T/C [2]: 77.5%
viability, T/C [3]: 75.4%
viability, T/C [4]: 76.6%
viability, T/C [5]: 87.1%
viability, T/C [6]: 81.5%
viability, T/C [7]: 32.6%
viability, T/C [8]: 48.7%
viability, T/C [9]: 40.5%
viability, T/C [10]: 31.1%
viability, T/C [11]: 42.7%
viability, T/C [12]: 37.2%
viability, T/C [13]: 31.9%
viability, T/C [14]: 41.5%
viability, T/C [15]: 40%
viability, T/C [16]: 38%
viability, T/C [17]: 44.6%
viability, T/C [18]: 31.5%
viability, T/C [19]: 43.2%
viability, T/C [20]: 30.3%
viability, T/C [21]: 31.3%
viability, T/C [22]: 30%
viability, T/C [23]: 36%
viability, T/C [24]: 34.1%
viability, T/C [25]: 33.8%
viability, T/C [26]: 31.4%
viability, T/C [27]: 34.2%
viability, T/C [28]: 31.5%
viability, T/C [29]: 44.9%
viability, T/C [30]: 28.5%
viability, T/C [31]: 32.5%
viability, T/C [32]: 24.3%
viability, T/C [33]: 35.7%
viability, T/C [34]: 30.9%
viability, T/C [35]: 37.3%
viability, T/C [36]: 33.2%

COc1c(OCCCN2CCOCC2)ccc2c3n(c(=NC(=O)c4cnc(N)nc4)nc12)CCN3 + CNC(=O)c1ccc(Nc2nc(OC3CCCC3)c3c(-c4ccc5nc(C)oc5c4)c[nH]c3n2)c(OC)c1
pIC50 (second compound 0.0316 µM): 7.23
pIC50 (second compound 0.1 µM): > 8.50
pIC50 (second compound 0.316 µM): > 8.50
pIC50 (second compound 1 µM): > 8.50
pIC50 (second compound 3.16 µM): > 8.50
pIC50 (second compound 10 µM): > 8.50
viability, T/C [1]: 81.8%
viability, T/C [2]: 85.6%
viability, T/C [3]: 65%
viability, T/C [4]: 37.5%
viability, T/C [5]: 6.4%
viability, T/C [6]: 2.99%
viability, T/C [7]: 31.6%
viability, T/C [8]: 29%
viability, T/C [9]: 25.3%
viability, T/C [10]: 14.5%
viability, T/C [11]: 4.25%
viability, T/C [12]: 1.91%
viability, T/C [13]: 34.9%
viability, T/C [14]: 32.7%
viability, T/C [15]: 19.5%
viability, T/C [16]: 10.1%
viability, T/C [17]: 3.08%
viability, T/C [18]: 1.56%
viability, T/C [19]: 38.9%
viability, T/C [20]: 25.7%
viability, T/C [21]: 17.8%
viability, T/C [22]: 7.48%
viability, T/C [23]: 1.73%
viability, T/C [24]: 1.03%
viability, T/C [25]: 28.3%
viability, T/C [26]: 24.1%
viability, T/C [27]: 15.3%
viability, T/C [28]: 8.87%
viability, T/C [29]: 2.29%
viability, T/C [30]: 0.59%
viability, T/C [31]: 22.5%
viability, T/C [32]: 21.5%
viability, T/C [33]: 16.8%
viability, T/C [34]: 7.19%
viability, T/C [35]: 1.54%
viability, T/C [36]: 0.67%
